Values quoted from earlier work in PMC11491004, “CHF6523 data suggest that the phosphoinositide 3-kinase delta isoform is not a suitable target for the management of COPD” (Respiratory Research, 2024).

Settings: Parts 1 and 2, single and multiple ascending dose; some mild inhalation-related cough; cited from earlier work

C[C@@H](c1oc(=O)c2ccccc2c1-c1cccc(CN2CCN(C)CC2)c1)n1nc(-c2cncc(O)c2)c2c(N)ncnc21 [CHF6523]
Safety profile in healthy volunteers: acceptable safety profile
